Key:
Assay in all cases: Holoreceptor transactivation assay
Type in all cases: cell-based
RXRα = target: T1, RXRα (Homo sapiens, UniProt P19793); conditions: relative to all trans retinoic acid; read-out: Transactivation Assay Efficacy (% of RA activity) RXRα
T1 construct: expressed in transfected cells; host or cells: CV1 cells
T1 sequence (P19793 1-462): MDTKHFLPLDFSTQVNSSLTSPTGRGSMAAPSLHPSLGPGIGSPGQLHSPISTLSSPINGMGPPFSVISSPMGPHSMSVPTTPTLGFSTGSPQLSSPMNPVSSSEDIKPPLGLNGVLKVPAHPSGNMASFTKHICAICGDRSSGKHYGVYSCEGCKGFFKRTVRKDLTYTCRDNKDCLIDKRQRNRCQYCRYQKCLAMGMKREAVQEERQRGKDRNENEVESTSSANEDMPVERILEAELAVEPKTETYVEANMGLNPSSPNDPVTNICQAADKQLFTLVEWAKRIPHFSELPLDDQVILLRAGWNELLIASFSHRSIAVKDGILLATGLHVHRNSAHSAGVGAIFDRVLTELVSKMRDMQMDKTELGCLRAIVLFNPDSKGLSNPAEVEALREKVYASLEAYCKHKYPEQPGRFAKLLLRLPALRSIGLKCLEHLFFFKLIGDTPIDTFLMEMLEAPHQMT
Source text: (§1) A holoreceptor transactivation assay and a ligand binding assay which measure the antagonist/agonist like activity of the compounds of the invention, or their ability to bind to the several retinoid receptor subtypes, respectively, are described in published PCT Application No. WO93/11755 (particularly on pages 30-33 and 37-41) published on Jun. 24, 1993, the specification of which is also incorporated herein by reference. A description of the holoreceptor transactivation assay is also provided below.
(§2) CV1 cells (5,000 cells/well) were transfected with an RAR reporter plasmid MTV-TREp-LUC (50 ng) along with one of the RAR expression vectors (10 ng) in an automated 96-well format by the calcium phosphate procedure of Heyman et al. Cell 68: 397-406. For RXR-α and RXR-γ transactivation assays, an RXR-responsive reporter plasmid CRBPII-tk-LUC (50 ng) along with the appropriate RXR expression vectors (10 ng) was used substantially as described by Heyman et al. above, and Allegretto et al. J. Biol. Chem. 268: 26625-26633. For RXR-β transactivation assays, an RXR-responsive reporter plasmid CPRE-tk-LUC ([…]) along with RXR-β expression vector ([…]) was used as described in above. These reporters contain DRI elements from human CRBPII and certain DRI elements from promotor, respectively (see Mangelsdorf et al. The Retinoids: Biology Chemistry and Medicine, pp. 319-349, Raven Press Ltd., New York and Heyman et al., cited above). A β-galactosidase (50 ng) expression vector was used as an internal control in the transfections to normalize for variations in transfection efficiency. The cells were transfected in triplicate for 6 hours, followed by incubation with retinoids for 36 hours, and the extracts were assayed for luciferase and […] activities. The detailed experimental procedure for holoreceptor transactivations has been described in Heyman et al. above, and Allegretto et al. cited above. The results obtained in this assay are expressed in EC50 numbers, as they are also in the chimeric receptor transactivation assay. The Heyman et al. Cell 68: 397-406, Allegretto et al. J. Biol. Chem. 268: 26625-26633, and Mangelsdorf et al. The Retinoids: Biology, Chemistry, and Medicine, pp. 319-349, Raven Press Ltd., New York, are expressly incorporated herein by reference. The results of ligand binding assay are expressed in Kd numbers. (See Cheng et al. Biochemical Pharmacology 22: 3099-3108, expressly incorporated herein by reference.)

RXRβ = conditions: relative to all trans retinoic acid
Source text: as §1, §2

RXRγ = target: T2, RXRγ (Mus musculus, UniProt P28705); conditions: relative to all trans retinoic acid; read-out: Transactivation Assay Efficacy (% of RA activity) RXRγ
T2 construct: expressed in transfected cells; host or cells: CV1 cells
T2 sequence (P28705 1-463): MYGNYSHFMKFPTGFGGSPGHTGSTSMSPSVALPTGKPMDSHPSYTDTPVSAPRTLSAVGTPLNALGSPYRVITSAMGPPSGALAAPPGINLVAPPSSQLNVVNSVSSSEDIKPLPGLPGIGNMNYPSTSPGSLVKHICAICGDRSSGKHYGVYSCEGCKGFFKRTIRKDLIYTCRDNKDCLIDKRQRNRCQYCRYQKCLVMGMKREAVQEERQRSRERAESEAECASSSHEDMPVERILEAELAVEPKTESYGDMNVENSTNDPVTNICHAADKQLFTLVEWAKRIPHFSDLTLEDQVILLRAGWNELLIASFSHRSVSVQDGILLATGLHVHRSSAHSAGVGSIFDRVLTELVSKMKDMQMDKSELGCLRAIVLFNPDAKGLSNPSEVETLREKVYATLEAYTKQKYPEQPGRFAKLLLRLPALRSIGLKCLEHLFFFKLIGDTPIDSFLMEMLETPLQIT
Source text: as §1, §2

Structure (SMILES) | Emax (RXRα) [%] | Emax (RXRγ) [%] | Transactivation Assay Efficacy (% of RA activity) RXRβ (RXRβ)
Cc1cnc(C2=CCC(C)(C)c3ccc(C#Cc4ccc(C(=O)O)cc4)cc32)s1 [Compound 30, 4-[(5,6-Dihydro-5,5-dimethyl-8-(5-methylthiazol-2-yl)-2-naphthalenyl)ethynyl]benzoic acid] | 0 | 3 | 9.00 % of RA activity
Cc1nc(C2=CCC(C)(C)c3ccc(C#Cc4ccc(C(=O)O)cc4)cc32)sc1C [Compound 32] | 1 | 2 | 0.00 % of RA activity
Cc1ccc(C2=CCC(C)(C)c3ccc(C(=O)Nc4ccc(C(=O)O)cc4)cc32)cc1 [Compound 36, 4-[[(5,6-Dihydro-5,5-dimethyl-8-(4-methylphenyl)-2-naphthalenyl)carbonyl]amino]-benzoic acid] | 1 | 2 | 7.00 % of RA activity
Cc1ccc(C2=CCC(C)(C)c3ccc(C(=O)Oc4ccc(C(=O)O)cc4)cc32)cc1 [Compound 39, 4-[[(5,6-Dihydro-5,5-dimethyl-8-(4-methylphenyl)-2-naphthalenyl)carbonyl]oxy]-benzoic acid] | 2 | 1 | 0.00 % of RA activity
Cc1ccc(C2=CCC(C)(C)c3ccc(C(=O)Nc4ccc(C(=O)O)c(F)c4)cc32)cc1 [Compound 41, 2-Fluoro-4-[[(5,6-dihydro-5,5-dimethyl-8-(4methylphenyl)-2-naphthalenyl)carbonyl]amino]-benzoic acid] | 1 | 3 | 0.00 % of RA activity
Cc1ccc(C2=CCC(C)(C)c3ccc(/C=C/c4ccc(C(=O)O)cc4)cc32)cc1 [Compound 45] | 3 | 0 | 8.00 % of RA activity
Cc1ccc(C2=CCC(C)(C)c3ccc(N=Nc4ccc(C(=O)O)cc4)cc32)cc1 [Compound 46b, 4-[(5,6-dihydro-5,5-dimethyl-8-(4-methylphenyl)-2-naphthalenyl)azo]-benzoic acid] | 2 | 4 | 0.00 % of RA activity
CC(/C=C/C=C(\C)c1ccc2c(c1)C(c1ccc(C)cc1)=CCC2(C)C)=C\C(=O)O [Compound 52, (E,E,E)-3-methyl-7-(5,6-dihydro-5,5-dimethyl-8-(4-methylphenyl)-2-naphthalenyl)-2,4,6-octatrienoic acid] | 0 | 10 | 0.00 % of RA activity

More lines, main results first:

Emax (RXRα) [%] | Emax (RXRγ) [%] | Structure (SMILES) | Transactivation Assay Efficacy (% of RA activity) RXRβ (RXRβ)
2 | 1 | Cc1ccc(C2=CCC(C)(C)c3ccc(C#Cc4ccc(C(=O)O)cc4)cc32)cn1 [Compound 18, 4-[(5,6-Dihydro-5,5-dimethyl-8-(2-methyl-5-pyridyl)-2-naphthalenyl)ethynyl]benzoic acid] | 10.00 % of RA activity
0 | 4 | CC1(C)CC=C(c2ccccn2)c2cc(C#Cc3ccc(C(=O)O)cc3)ccc21 [Compound 19, 4-[(5,6-Dihydro-5,5-dimethyl-8-(2-pyridyl)-2-naphthalenyl)ethynyl]benzoic acid] | 9.0 % of RA activity
4 | 3 | Cc1cccc(C2=CCC(C)(C)c3ccc(C#Cc4ccc(C(=O)O)cc4)cc32)c1 [Compound 20, 4-[(5,6-Dihydro-5,5-dimethyl-8-(3-methylphenyl)-2-naphthalenyl)ethynyl]benzoic acid] | 0.00 % of RA activity
3 | 3 | CCc1ccc(C2=CCC(C)(C)c3ccc(C#Cc4ccc(C(=O)O)cc4)cc32)cc1 [Compound 21, 4-[(5,6-Dihydro-5,5-dimethyl-8-(4-ethylphenyl)-2-naphthalenyl)ethynyl]benzoic acid] | 0.00 % of RA activity
1 | 2 | COc1ccc(C2=CCC(C)(C)c3ccc(C#Cc4ccc(C(=O)O)cc4)cc32)cc1 [Compound 22, 4-[(5,6-Dihydro-5,5-dimethyl-8-(4-methoxyphenyl)-2-naphthalenyl)ethynyl]benzoic acid] | 0.00 % of RA activity
1 | 3 | Cc1cc(C)cc(C2=CCC(C)(C)c3ccc(C#Cc4ccc(C(=O)O)cc4)cc32)c1 [Compound 24, 4-[(5 6-Dihydro-5,5-dimethyl-8-(3,5-dimethylphenyl)-2-naphthalenyl)ethynyl]benzoic acid] | 0.00 % of RA activity
2 | 3 | CC1(C)CC=C(c2cccnc2)c2cc(C#Cc3ccc(C(=O)O)cc3)ccc21 [Compound 26, 4-[(5,6-Dihydro-5,5-dimethyl-8-(3-pyridyl)-2-naphthalenyl)ethynyl]benzoic acid] | 0.00 % of RA activity
2 | 4 | Cc1ccccc1C1=CCC(C)(C)c2ccc(C#Cc3ccc(C(=O)O)cc3)cc21 [Compound 27, 4-[(5,6-Dihydro-5,5-dimethyl-8-(2-methylphenyl)-2-naphthalenyl)ethynyl]benzoic acid] | 0.00 % of RA activity
2 | 3 | CC1(C)CC=C(c2cccc(O)c2)c2cc(C#Cc3ccc(C(=O)O)cc3)ccc21 [Compound 28, 4-[(5,6-Dihydro5,5-dimethyl-8-(3-hydroxyphenyl)-2-naphthalenyl)ethynyl]benzoic acid] | 0.00 % of RA activity
0 | 2 | CC1(C)CC=C(c2ccc(O)cc2)c2cc(C#Cc3ccc(C(=O)O)cc3)ccc21 [Compound 29, 4-[(5,6-Dihydro-5,5-dimethyl-8-(4-hydroxyphenyl)-2-naphthalenyl)ethynyl]benzoic acid] | 6.00 % of RA activity
1 | 6 | Cc1csc(C2=CCC(C)(C)c3ccc(C#Cc4ccc(C(=O)O)cc4)cc32)n1 [Compound 31, 4-[(5,6-Dihydro-5,5-dimethyl-8-(4-methylthiazol-2-yl)-2-naphthalenyl)ethynyl]benzoic acid] | 8.00 % of RA activity
1 | 3 | Cc1ccc(C2=CCC(C)(C)c3ccc(C#Cc4ccc(C(=O)O)cc4)cc32)s1 [Compound 34, 4-[(5,6-Dihydro-5,5-dimethyl-8-(5-methyl-2-thienyl)-2-naphthalenyl)ethynyl]benzoic acid] | 0.00 % of RA activity
